Literature values, collected in patent US20220347144A1, “COMPOSITIONS AND METHODS FOR PREVENTING AND/OR REDUCING WEIGHT GAIN AND ASSOCIATED CONDITIONS” (University of Virginia Patent Foundation, priority 2019, published 2022).

What was measured:
[1] = test system: rats; settings: triglyceride form, Kojima et al., 2010; cited from earlier work
[2] = test system: rats; settings: in rapeseed oil, Hulan et al., 1977; cited from earlier work

Row | Compound | obesity [1] | heart lesions [2]
1 | CCCCCCCCCCCCCCCCCCCCCC(=O)O [behenic acid] | prevented obesity | –
2 | CCCCCCCC/C=C\CCCCCCCCCCCC(=O)O [erucic acid, (Z)-docos-13-enoic acid] | – | implicated in causing heart lesions
